Measurements published in US11229654B2, “Combination therapy of tetracyclic quinolone analogs for treating cancer” (Senhwa Biosciences, Inc., priority 2015, dated 2022).
Where two headings read alike, the source gives them in different places.

Legend:
Toledo cell = test: Anti-proliferation assay (MTS), Toledo cells; type: cell-based, human; conditions: for IC50 / Estimated IC25: single drug treatment, 96 hours post-treatment; for IC50: read-out: Estimated IC50
Description: (§1) Three human Lymphoma cell lines Toledo, MC116 and HT were purchased from the Bioresource Collection and Research Center (BCRC, Taiwan). All cells were incubated in a humidified atmosphere containing 5% C02 at 37° C.
(§2) CAL-101, also known as Idelalisib, is a PI3K-delta inhibitor with potential immunomodulating and antineoplastic activities. Anticancer activity of the combination of Compound A and CAL-101 on three human Lymphoma cell lines (Toledo, MC116, HT) was assessed using in vitro cell proliferation assay. Cell proliferation of drug-treated human cancer cells was determined at 96 hours post-treatment using the MTS (Promega) colorimetric assay.
(§3) Corrected absorbance values were obtained by subtracting the average 490 nm absorbance of the control wells (medium only, no cell) from all other absorbance values. Percentage inhibition of cell growth for compound treatment was calculated using this formula: […]
(§4) The sigmoidal dose-response curve is generated by fitting the percentage inhibition value as a function of logarithm of compound concentrations using GraphPad Prism software. IC50 values are defined as the concentration needed for a 50% inhibition of cell growth. […] All data represent the results of triplicate experiments.
(§5) Estimated IC50 and IC25 values were calculated based on non-linear regression of the dose-response curves of the cell proliferation ratio (%) as a function of logarithm of drug concentrations in single treatments.

MC116 cell = test: Anti-proliferation assay (MTS), MC116 cells; type: cell-based, human
Description: as §1, §2, §3, §4, §5

HT cell = test: Anti-proliferation assay (MTS), HT cells; type: cell-based, human
Description: as §1, §2, §3, §4, §5

[1] = test system: BRCA1 negative (UWB1.289-2945) human ovarian cancer cell line; test: CellTiter-Glo cell viability assay, BRCA1 negative ovarian cancer cells; type: cell-based; conditions: for Cell toxicity of cytokine by itself: 0-5 ng/mL, BRCA1 negative ovarian cancer cell line; for Effect on cell toxicity in the presence of Compound A: cytokine 0-5 ng/mL together with Compound A
Description: (§6) BRCA1 negative (UWB1.289-2945) and BRCA1 positive (UWB1.289) human ovarian cancer cell lines were purchased from the American Type Culture Collection (ATCC). Those cell were incubated in a humidified atmosphere containing 5% C02 at 37° C.
(§7) The anticancer activity of Compound A on BRCA1 negative and BRCA1 positive human ovarian cancer cell lines were also assessed using in vitro cell proliferation assay. Cell proliferation of drug-treated human cancer cell was determined at 72 hours post-treatment using the CellTiter-Glo® Luminescent cell viability assay (Promega). IC50 values are defined as the concentration needed for a 50% inhibition of cell growth and were calculated in GraphPad. The anti-proliferative effects of Compound A alone and in combination with cytokines on these two cell lines are shown in FIGS. 4-6.
(§8) Percentage inhibition of cell growth for compound treatment was calculated using this formula: […]
(§9) The data were processed using built-in excel-macro. Cell viability/proliferation was expressed as […] with respect to the average signal from the untreated control wells of the respective plate. Out-liar values (of the triplicate) were rejected during QC. The processed data were plotted using Graphpad software. Statistical analysis was done using Excel (Microsoft) and Pair-wise comparison of two groups was made using the student's t test. All data represent the results of triplicate experiments.
(§10) Here, two types of cytokines, TNF-α and IFN-γ, were used (0, 0.008, 0.04, 0.2, 1, 5 ng/mL) in response to together with Compound A.

[2] = test system: BRCA1 positive (UWB1.289) human ovarian cancer cell line; test: CellTiter-Glo cell viability assay, BRCA1 positive ovarian cancer cells; type: cell-based; conditions: for Cell toxicity of cytokine by itself: 0-5 ng/mL, BRCA1 positive ovarian cancer cell line
Description: as §6, §7, §8, §9, §10

[3] = test system: HBCx-17 (BRCA2 mutant) cancer cell line; test: Chemokine expression in BRCA2 mutant cancer cells; type: cell-based
From the text: (§11) FIG. 8A-8C show effects of Compound A treatment on chemokine expressions in BRCA2 wild type (WT) and mutant (Mut) PDX-derived breast cancer cells.
(§12) Compound A was applied to both HBCx-39 (BRCA2 wild type) and HBCx-17 (BRCA2 mutant) cancer cell lines in vitro. HBCx-17 is a homologous recombination deficiency tumor cell line having BRCA2 mutation. […] CCL21 and CXCL9 mRNA expression in cancer cells having BRCA2 mutant compared to wild type cancer cells.

[4] = test system: HBCx-39 (BRCA2 wild type) cancer cell line; test: Chemokine expression in BRCA2 wild type cancer cells; type: cell-based
From the text: as §11, §12

[5] = Homo sapiens, single drug treatment, 96 hours post-treatment, read-out: Estimated IC50
[6] = Homo sapiens, single treatment, read-out: IC50
[7] = single drug treatment, 96 hours post-treatment

Compound: CC[C@H](Nc1ncnc2[nH]cnc12)c1nc2cccc(F)c2c(=O)n1-c1ccccc1 [CAL-101]
- inhibition at 0.4 µM (Toledo cell; Homo sapiens, IC50 conc. used: Compound A 50 nM, CAL-101 400 nM): 49.6 ± 1.7%
- IC50 (Toledo cell; Homo sapiens): 76 nM
- Estimated IC25 (Toledo cell): 25.3 ± 14.9 nM
- inhibition at 17.5 µM (MC116 cell; Homo sapiens, IC25 conc. used: Compound A 150 nM, CAL-101 17500 nM): 9.2 ± 3.4%
- inhibition at 35 µM (MC116 cell; Homo sapiens, IC50 conc. used: Compound A 450 nM, CAL-101 35000 nM): 70.4 ± 3.1%
- IC50 (MC116 cell; [5]): 118000 ± 29600 nM
- IC50 (MC116 cell; [6]): > 10000 nM
- Estimated IC25 (MC116 cell; [7]): 39286.7 ± 9871.2 nM
- inhibition at 2.6667 µM (HT cell; Homo sapiens, IC25 conc. used: Compound A 133.3 nM, CAL-101 2666.7 nM): 19.7 ± 4.3%
- inhibition at 8 µM (HT cell; Homo sapiens, IC50 conc. used: Compound A 400 nM, CAL-101 8000 nM): 37.6 ± 1.5%
- IC50 (HT cell; [5]): 10100 ± 1380 nM
- IC50 (HT cell; [6]): > 10000 nM
- Estimated IC25 (HT cell; [7]): 3357.3 ± 461.0 nM

Compound: Cc1cnc(CNC(=O)c2c(=O)c3ccc(N4CCCN(C)CC4)nc3n3c2sc2ccccc23)cn1 [Compound A, 2-(4-Methyl-[1,4]diazepan-1-yl)-5-oxo-5H-7-thia-1,11b-diaza-benzo[c]fluorene-6-carboxylic acid (5-methyl-pyrazin-2-ylmethyl)-amide]
- IC50 ([1]; Homo sapiens, BRCA1 negative cells, 72 hours post-treatment): 2.34 to 3.78 nM
- IC50 (Toledo cell; Homo sapiens): 45.9 nM
- Inhibition (%) (Toledo cell; IC50 conc. used: Compound A 50 nM, CAL-101 400 nM): 25.6 ± 2.5%
- Estimated IC25 (Toledo cell): 15.3 ± 0.8 nM
- Maximum toxicity ([2]; BRCA1 positive UWB1.289, highest concentration (100 nM), 72 hours): ≤ 40%
- CCL9, CCL21 and CXCL9 mRNA expression ([3]; BRCA2 mutant compared to wild type cancer cells): increased more
- Production of chemokines in tumor cells ([3]; HBCx-17 BRCA2 mutant): capable of inducing the production of several important chemokines
- Production of chemokines in tumor cells [4]: capable of inducing the production of several important chemokines
- IC50 (MC116 cell; [5]): 723 nM
- Inhibition (%) (MC116 cell; IC25 conc. used: Compound A 150 nM, CAL-101 17500 nM): 44.3 ± 5.5%
- Inhibition (%) (MC116 cell; IC50 conc. used: Compound A 450 nM, CAL-101 35000 nM): 83.4 ± 1.2%
- Estimated IC25 (MC116 cell; [7]): 241.0 ± 6.5 nM
- IC50 (HT cell; [5]): 526 nM
- Inhibition (%) (HT cell; IC25 conc. used: Compound A 133.3 nM, CAL-101 2666.7 nM): 15.2 ± 0.9%
- Inhibition (%) (HT cell; IC50 conc. used: Compound A 400 nM, CAL-101 8000 nM): 41.2 ± 1.9%
- Estimated IC25 (HT cell; [7]): 175.1 ± 6.6 nM

Compound: IFN-γ: cytokine, Interferon gamma
- Cell toxicity of cytokine by itself [1]: minimal, but increasing trend of cell toxicity with increasing dose
- Effect on cell toxicity in the presence of Compound A ([1]; BRCA1 negative cells): additive effect
- Cell toxicity of cytokine by itself [2]: minimal, but increasing trend of cell toxicity with increasing dose

Compound: TNF-α
- Cell toxicity of cytokine by itself [1]: minimal, but increasing trend of cell toxicity with increasing dose
- Effect on cell toxicity in the presence of Compound A ([1]; BRCA1 negative cells): additive effect
- Cell toxicity of cytokine by itself [2]: minimal, but increasing trend of cell toxicity with increasing dose
